Source: patent publication US20230414617A1, “PHARMACEUTICAL COMPOSITION COMPRISING ACID-BASE NEUTRALIZATION COMBINATION AND APPLICATION THEREOF” (CHENGDU KUACHANGAOPU MEDICAL TECHNOLOGY CO., LTD., priority 2020, published 2023)

Assays:
[1] = pH of the study drug aqueous solution; format: physicochemical
liver tissue = assay: Tissue necrosis study: necrotic zone of liver tissue after intrahepatic injection (Example 2); format: in vivo, New Zealand Large White rabbits
Protocol: The rabbits were kept on conventional diet after drug administration, euthanized after 1 week, and the necrotic zone of the liver was determined after autopsy. The liver was incised along the center of the necrotic zone, and the extent of the necrotic zone was measured at the largest level, and the maximum and minimum diameters of the necrotic zone were measured respectively. The average diameter of the necrotic zone of liver tissue=(maximum diameter+minimum diameter)/2.

sarcoma S180 cell = assay: Tumor inhibition effect in mice bearing sarcoma S180 cell (Example 2); format: in vivo; details: intratumoral injection; for Tumor weight (x ± s): 150 μl/mouse, once every 3 days x3, 5th day after end; for Tumor inhibition rate: vs negative control group 01
Protocol: (§1) In the following examples of the present invention, the co-administration pharmaceutical efficacies of drug A and drug B combination administration was determined by ratio q of actual pharmaceutical efficacy/expected pharmaceutical efficacy according to Zhengjun JIN method, as follows.
In the tumor inhibition effect study, successfully modeled experimental animals (mice bearing sarcoma S180 cell, with an average tumor volume of 314 mm^3) were randomly divided into 2 negative control groups (01, 02) and 9 drug study groups (1-9). […] The negative control and study drugs were administered by intraperitoneal injection (groups 02, 6 and 9) and intratumoral injection (other study groups), respectively. Each group was administered once every 3 days for a total of 3 times, with an injection volume of 150 μl/mouse. On the 5th day after the administration was ended, the animals were euthanized, and the tumor weight was measured after anatomy to the animals. The tumor inhibition rate was calculated from the negative control group of each drug administration mode.

tumor = assay: Tumor inhibition rate, general statements (chemical ablation study; positive controls); format: in vivo
[2] = test system: outer lateral muscle of right leg; assay: Series A: tissue destruction in normal muscle after intramuscular injection (Example 10); format: in vivo, nude mice; details: one intramuscular injection 100 μl/mouse, day 3
Protocol: The test animals were divided into two series, A and B. The animals in series A were non-modeled nude mice, randomly divided into four groups, and were injected with the drugs according to groups 1-4 in Table 11 by intramuscular injection of outer lateral muscle of right leg. Each group was administered once, at an injection volume of 100 μl/mouse. On day 3 after the administration was ended, the animals were euthanized, and the specimens from outer lateral muscle mass of right leg of the nude mice were dissected and taken out, and gross pathological analysis was performed. The muscle sections were measured for distinguishing the area of tissue destruction region in the normal muscle (incomplete necrosis) (T3a) and the area of severe tissue destruction region therein (complete necrosis) […], and the results are shown in Table 11 below.

[3] = test system: mouse liver cancer Hepa1-6 cells; assay: Series B: tumor inhibition, Hepa1-6 transplantation tumor in 8-month-old mice (Example 10); format: in vivo; details: one intratumoral injection 100 μl/mouse; for r'3d, tumor inhibition rate (tumor volume): day 3; for r'14d, tumor inhibition rate (tumor volume): day 14
Protocol: The animals in series B were modeled in 8-month-old mice as a middle-aged and elderly patient model, which was not consistent with the commonly used young patient model in terms of tumor formation, tumor histomorphology, and body immunocompetence. […] The model animals were randomly divided into 13 groups. Each group was administered once by intratumoral injection according to the drug grouping in Table 11 with an injection volume of 100 μl/mouse.
The actual/expected ratio […] for short-term drug efficacy and the actual/expected ratio q14d for medium-term drug efficacy were calculated based on the drug efficacies (r′3d, […]) at different times (day 3, day 14), respectively.

breast cancer 4T1 cells [4] = assay: Tumor inhibition, breast cancer 4T1 transplantation tumor (Example 3); format: in vivo, BALB/c mouse; details: intratumoral; for Tumor weight (x ± s): 150 μl/mouse, once every 3 days x3, 5th day after end; for Tumor inhibition rate: vs negative control
Protocol: as §1
In an experiment, the test animal was a BALB/c mouse, the modeling cells were breast cancer 4T1 cells, and the transplantation tumor was modeled at 1×10^6 cells/mouse under the skin of the animal's right axilla. […] Each group was administered by intratumoral injection once every 3 days for a total of 3 times, each time at an injection dose of 150 μl/mouse. On the 5th day after the administration was ended, the animals were euthanized, and the tumor weight was determined after anatomy to the animals. The tumor inhibition rate was calculated from the negative control group.

breast cancer 4T1 cells [5] = assay: Tumor inhibition, breast cancer 4T1 transplantation tumor (Example 4); format: in vivo, BALB/c mice; details: intratumoral
Protocol: as §1
In another experiment, the test animal was BALB/c mice, the modeling cells were breast cancer 4T1 cells, and the transplantation tumor was modeled at 1×10^6 cells/mouse under the skin of the animal's right axilla. Successfully modeled experimental animals (average tumor volume 307 mm^3) were randomly divided into 1 negative control group (group 0) and 13 drug study groups (groups 1-13). […] Each group was administered by intratumoral injection once every 3 days for a total of 3 times, each time at an injection dose of 150 μl/mouse. On the 5th day after the administration was ended, the animals were euthanized, and the tumor weight was measured after anatomy to the animals. The tumor inhibition rate was calculated from the negative control group.

breast cancer 4T1 cells [6] = assay: Tumor inhibition, breast cancer 4T1 transplantation tumor (Example 7); format: in vivo, BALB/c mouse; details: intratumoral
Protocol: as §1
In an experiment, the test animal was a BALB/c mouse, the modeling cells were breast cancer 4T1 cells, and the transplantation tumor was modeled at 1×10^6 cells/mouse under the skin of the animal's right axilla. […] The negative controls and study drugs were administered intraperitoneally (groups 02, 11 and 15) and intratumorally (other study groups), respectively. All groups were dosed once every 3 days, for a total of 3 times, […], with an injection volume of 150 ul/mouse. On the 5th day after the administration was ended, the animals were euthanized, and the tumor weight was measured after anatomy to the animals. The tumor inhibition rate was calculated from the negative control group.

[7] = study drugs of Example 2 (Table 4), aqueous solution
[8] = positive controls, under the conditions of the following examples
[9] = study drugs of Example 3 (Table 5), aqueous solution

[Na+].[OH-] [0.3% NaOH, sodium hydroxide]
pH [1, 7]: 13.3
Diameter of necrotic zone of liver tissue (r ± s) (liver tissue; rabbit, in vivo): 1.3 ± 0.3 cm
Tumor weight (x ± s) (sarcoma S180 cell): 1.52 ± 0.22 g
Tumor inhibition rate (sarcoma S180 cell): 31%

O=c1[nH]cc(F)c(=O)[nH]1 [0.5-1% 5-fluorouracil, 5-fluorouracil]
Tumor inhibition rate (tumor; [8]): ≥ 30%

[Na+].[OH-] [3% NaOH, sodium hydroxide]
pH [1, 7]: 13.8
pH ([1]; study drugs of Example 2 (Table 4), aqueous solution, listed as 3% sodium hydroxide): 11.8
pH [1, 9]: 13.7
Diameter of necrotic zone of liver tissue (r ± s) (liver tissue; rabbit, in vivo): 1.8 ± 0.5 cm
S3d, area of severe tissue destruction region (complete necrosis) [2]: 18.3 mm^2
T3d, area of tissue destruction region in the normal muscle (incomplete necrosis) [2]: 29.6 mm^2
Tumor weight (x ± s) (sarcoma S180 cell): 1.04 ± 0.21 g
Tumor inhibition rate (sarcoma S180 cell): 53%
r'3d, tumor inhibition rate (tumor volume) [3]: 31.2%
r'14d, tumor inhibition rate (tumor volume) [3]: 2.8%
Tumor weight (x ± s) (breast cancer 4T1 cells [4]): 1.09 ± 0.25 g
Tumor inhibition rate (breast cancer 4T1 cells [4]): 55%

O=C([O-])O.[Na+] [7% sodium bicarbonate, sodium bicarbonate]
pH [1, 7]: 8.1
pH [1, 9]: 8.1
S3d, area of severe tissue destruction region (complete necrosis) [2]: 0 mm^2
T3d, area of tissue destruction region in the normal muscle (incomplete necrosis) [2]: 0 mm^2
Tumor weight (x ± s) (sarcoma S180 cell): 1.59 ± 0.20 g
Tumor inhibition rate (sarcoma S180 cell): 28%
r'3d, tumor inhibition rate (tumor volume) [3]: 4.1%
r'14d, tumor inhibition rate (tumor volume) [3]: 3.9%
Tumor weight (x ± s) (breast cancer 4T1 cells [4]): 1.73 ± 0.27 g
Tumor inhibition rate (breast cancer 4T1 cells [4]): 29%

N=C(N)NCCC[C@H](N)C(=O)O [15% arginine, arginine]
Tumor weight (x ± s) (breast cancer 4T1 cells [5]; 150 μl/mouse, once every 3 days x3, 5th day after end): 1.74 ± 0.28 g
Tumor inhibition rate (breast cancer 4T1 cells [5]; vs negative control): 23%
Tumor weight (x ± s) (breast cancer 4T1 cells [6]; 150 ul/mouse, once every 3 days x3, 5th day after end): 1.64 ± 0.28 g
Tumor inhibition rate (breast cancer 4T1 cells [6]; vs negative control): 25%
pH [1, 7]: 10.9
pH ([1]; study drugs of Example 4 (Table 6), aqueous solution): 11.0
pH ([1]; study drugs of Example 7 (Table 9), aqueous solution): 10.9
Diameter of necrotic zone of liver tissue (r ± s) (liver tissue; one intrahepatic injection of 1.0 mL, after 1 week): 0.2 ± 0.1 cm
Tumor weight (x ± s) (sarcoma S180 cell): 2.01 ± 0.24 g
Tumor inhibition rate (sarcoma S180 cell): 23%

CCO [75-99% ethanol, ethanol]
Tumor inhibition rate (tumor; [8]): ≥ 15%

[Na+].[OH-] [sodium hydroxide]
pH ([1]; sodium hydroxide solution before and after neutralization with sodium bicarbonate (e.g.)): 12
Tumor inhibition rate (tumor; chemical ablation study with basifying agents, model not stated): 43%
